Source: ChEMBL document CHEMBL4706724, “Novel Substituted Benzothiazole Compounds for Treating Huntington's Disease” (ACS Med Chem Lett, 2021)
pIC50: −log10 of the molar value.

biological target: Huntingtin (Homo sapiens, UniProt P42858); experiment: Inhibition of Huntingtin protein (unknown origin) incubated for overnight in presence of MW1/MAB2166 monoclonal antibody by ELISA-based MSD electrochemiluminescence assay
Sequence (P42858 whole entry): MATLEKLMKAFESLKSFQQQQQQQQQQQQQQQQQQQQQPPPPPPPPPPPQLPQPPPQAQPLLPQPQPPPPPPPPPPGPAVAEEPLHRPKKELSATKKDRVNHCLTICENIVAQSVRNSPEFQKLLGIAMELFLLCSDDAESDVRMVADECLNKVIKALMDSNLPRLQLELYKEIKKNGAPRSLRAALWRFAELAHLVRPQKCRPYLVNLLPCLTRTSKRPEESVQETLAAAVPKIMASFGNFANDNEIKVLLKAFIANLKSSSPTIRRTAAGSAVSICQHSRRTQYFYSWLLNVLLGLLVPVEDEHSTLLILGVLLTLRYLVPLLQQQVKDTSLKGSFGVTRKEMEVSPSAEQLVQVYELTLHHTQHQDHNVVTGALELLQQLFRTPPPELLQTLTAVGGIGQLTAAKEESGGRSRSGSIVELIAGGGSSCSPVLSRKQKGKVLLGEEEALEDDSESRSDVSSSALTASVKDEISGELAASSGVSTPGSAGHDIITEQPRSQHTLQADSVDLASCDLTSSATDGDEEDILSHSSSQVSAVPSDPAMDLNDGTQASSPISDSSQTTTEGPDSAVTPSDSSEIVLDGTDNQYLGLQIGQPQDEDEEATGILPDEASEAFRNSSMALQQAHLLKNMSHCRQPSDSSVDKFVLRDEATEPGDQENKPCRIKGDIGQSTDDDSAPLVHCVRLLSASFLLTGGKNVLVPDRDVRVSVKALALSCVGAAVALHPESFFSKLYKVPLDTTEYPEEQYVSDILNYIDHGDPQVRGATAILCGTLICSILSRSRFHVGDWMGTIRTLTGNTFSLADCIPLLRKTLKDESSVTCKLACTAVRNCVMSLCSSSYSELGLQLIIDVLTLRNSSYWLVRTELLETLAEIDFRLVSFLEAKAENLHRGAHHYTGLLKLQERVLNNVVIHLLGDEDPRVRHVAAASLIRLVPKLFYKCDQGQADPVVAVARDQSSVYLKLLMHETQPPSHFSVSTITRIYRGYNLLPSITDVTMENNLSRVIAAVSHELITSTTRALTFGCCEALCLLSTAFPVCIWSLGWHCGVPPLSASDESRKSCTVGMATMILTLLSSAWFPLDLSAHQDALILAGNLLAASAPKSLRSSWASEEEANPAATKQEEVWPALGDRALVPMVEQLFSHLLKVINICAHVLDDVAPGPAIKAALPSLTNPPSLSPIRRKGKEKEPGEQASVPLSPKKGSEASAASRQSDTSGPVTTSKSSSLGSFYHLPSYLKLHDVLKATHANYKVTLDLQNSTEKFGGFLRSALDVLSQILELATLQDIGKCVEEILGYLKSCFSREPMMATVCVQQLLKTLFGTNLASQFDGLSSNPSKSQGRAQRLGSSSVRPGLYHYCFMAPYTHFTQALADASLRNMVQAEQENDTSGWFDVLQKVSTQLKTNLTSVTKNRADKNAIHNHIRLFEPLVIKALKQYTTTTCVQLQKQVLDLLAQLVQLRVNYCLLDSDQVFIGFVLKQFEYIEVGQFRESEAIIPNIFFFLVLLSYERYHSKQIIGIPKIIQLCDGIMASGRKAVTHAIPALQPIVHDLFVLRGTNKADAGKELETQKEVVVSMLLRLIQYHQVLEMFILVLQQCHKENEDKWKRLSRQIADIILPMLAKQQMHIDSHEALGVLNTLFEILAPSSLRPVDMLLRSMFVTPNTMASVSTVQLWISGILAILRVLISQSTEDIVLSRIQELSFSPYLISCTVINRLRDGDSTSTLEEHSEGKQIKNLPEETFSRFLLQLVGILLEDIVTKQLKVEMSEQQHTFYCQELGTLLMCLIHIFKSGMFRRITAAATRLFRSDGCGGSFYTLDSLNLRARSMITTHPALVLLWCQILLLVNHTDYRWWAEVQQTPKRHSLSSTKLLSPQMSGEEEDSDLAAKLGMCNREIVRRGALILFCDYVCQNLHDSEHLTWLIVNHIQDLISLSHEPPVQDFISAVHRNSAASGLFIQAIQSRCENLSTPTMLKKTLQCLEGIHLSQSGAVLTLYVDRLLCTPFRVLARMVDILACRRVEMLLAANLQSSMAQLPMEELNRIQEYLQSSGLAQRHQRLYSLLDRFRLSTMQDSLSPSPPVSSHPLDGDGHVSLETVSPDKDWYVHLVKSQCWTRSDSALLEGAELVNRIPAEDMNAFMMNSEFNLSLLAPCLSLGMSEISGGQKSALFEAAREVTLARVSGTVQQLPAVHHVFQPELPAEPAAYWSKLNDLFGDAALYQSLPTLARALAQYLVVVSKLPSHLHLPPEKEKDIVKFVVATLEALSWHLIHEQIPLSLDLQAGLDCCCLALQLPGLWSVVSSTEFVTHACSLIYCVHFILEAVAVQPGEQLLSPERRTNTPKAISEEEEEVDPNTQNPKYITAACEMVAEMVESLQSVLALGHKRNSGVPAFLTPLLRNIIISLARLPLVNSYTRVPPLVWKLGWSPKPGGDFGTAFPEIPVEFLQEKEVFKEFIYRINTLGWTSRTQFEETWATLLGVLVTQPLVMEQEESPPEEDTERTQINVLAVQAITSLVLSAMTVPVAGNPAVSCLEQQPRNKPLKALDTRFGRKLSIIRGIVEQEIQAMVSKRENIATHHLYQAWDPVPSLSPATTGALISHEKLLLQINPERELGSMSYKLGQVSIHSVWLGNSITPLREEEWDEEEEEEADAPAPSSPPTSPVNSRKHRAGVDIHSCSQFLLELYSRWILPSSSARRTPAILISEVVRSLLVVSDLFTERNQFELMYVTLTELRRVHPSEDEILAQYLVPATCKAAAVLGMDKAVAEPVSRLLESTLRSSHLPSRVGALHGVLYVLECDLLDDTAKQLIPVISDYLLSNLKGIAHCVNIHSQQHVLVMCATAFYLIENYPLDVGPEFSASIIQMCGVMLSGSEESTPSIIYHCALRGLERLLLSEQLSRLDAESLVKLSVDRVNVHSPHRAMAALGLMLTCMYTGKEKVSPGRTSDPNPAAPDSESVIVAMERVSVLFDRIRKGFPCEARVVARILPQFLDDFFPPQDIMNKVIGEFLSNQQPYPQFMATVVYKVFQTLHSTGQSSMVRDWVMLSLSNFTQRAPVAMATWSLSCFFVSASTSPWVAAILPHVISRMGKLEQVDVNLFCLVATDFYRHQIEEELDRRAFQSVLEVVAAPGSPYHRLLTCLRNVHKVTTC

SMILES | pIC50
CN(c1nc2nnc(-c3ccc(-c4cn[nH]c4)cc3O)cc2s1)C1CCN(C2CC2)CC1 | ≥ 7.00
CN(c1nc2nnc(-c3ccc(-c4c[nH]nc4F)cc3O)cc2s1)C1CCNC1 (stereo unspecified) | ≥ 7.00
Oc1cc(-c2cn[nH]c2)ccc1-c1cc2sc(N3CCC34CCNCC4)nc2nn1 | ≥ 7.00
CN1CC2(C1)CN(c1nc3nnc(-c4ccc(-c5c[nH]nc5F)cc4O)cc3s1)C2 | ≥ 7.00

Now from value to compound:

pIC50 | SMILES
≥ 7.00 | Cc1nc2ccc(-c3cc(F)c4nc(C5CCNCC5)sc4c3)cc2o1
≥ 7.00 | Cc1cn2nc(-c3cc(F)c4nc(OC5CCN(C)CC5)sc4c3)cc(C)c2n1
